# Laboratory results from article PMC9775061 (2022).
# Experiments:
# [1] = tested on: rGG-(CAG)6-CC (RNA, repeat) GGCAGCAGCAGCAGCAGCAGCC; experiment: fluorescence titration (turn-on, 463 nm, λex 300 nm); settings: 300 mM NaCl; 20 mM MOPS pH 7.0; 10 µM DB-TPE; apparent; 1:1 model
# [2] = tested on: complementary (CAG)3/(CUG)3 RNA duplex (rGG-(CAG)3-CC and rGG-(CUG)3-CC) (RNA, duplex) GGCAGCAGCAGCC/GGCUGCUGCUGCC; experiment: fluorescence turn-on (λex 300 nm); settings: 300 mM NaCl; 20 mM MOPS pH 7.0; 10 µM DB-TPE, 1 eq. duplex; much weaker fluorescence, likely non-specific electrostatic
compound,measurement,setting,value
CN(C)CCCNC(=N)c1ccc(C(=N)NCCCN(C)Cc2cn(Cc3ccc(C(=C(c4ccccc4)c4ccccc4)c4ccccc4)cc3)nn2)cc1,Kd,[1],2 µM
same,binding,[2],weak
